Data as given in PubChem BioAssay (NCI).
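Cultured in 96-well plates, cells were exposed to test compound for 48 hours across five concentrations. TGI marks complete inhibition of growth.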

Legend:
Assay in all cases: DTP human tumour cell line panel, 48 h
SK-MEL-5 melanoma = system: SK-MEL-5 melanoma
A549 NSCLC = system: A549 NSCLC
SNB-19 CNS = system: SNB-19 CNS
OVCAR-5 ovarian = system: OVCAR-5 ovarian
A498 renal = system: A498 renal
SN12C renal = system: SN12C renal
SF-539 CNS = system: SF-539 CNS
HOP-92 NSCLC = system: HOP-92 NSCLC
SF-268 CNS = system: SF-268 CNS
KM12 colon = system: KM12 colon
HCC-2998 colon = system: HCC-2998 colon
MOLT-4 leukemia = system: MOLT-4 leukemia
HL-60(TB) leukemia = system: HL-60(TB) leukemia
U251 CNS = system: U251 CNS
HOP-62 NSCLC = system: HOP-62 NSCLC
SNB-75 CNS = system: SNB-75 CNS
TK-10 renal = system: TK-10 renal
IGROV1 ovarian = system: IGROV1 ovarian
MDA-MB-435 = system: MDA-MB-435
K-562 leukemia = system: K-562 leukemia

SMILES | TGI (SK-MEL-5 melanoma) [µM] | TGI (A549 NSCLC) [µM] | TGI (SNB-19 CNS) [µM] | TGI (OVCAR-5 ovarian) [µM] | TGI (A498 renal) [µM] | TGI (SN12C renal) [µM] | TGI (SF-539 CNS) [µM] | TGI (HOP-92 NSCLC) [µM] | TGI (SF-268 CNS) [µM] | TGI (KM12 colon) [µM] | TGI (HCC-2998 colon) [µM] | TGI (MOLT-4 leukemia) [µM] | TGI (HL-60(TB) leukemia) [µM] | TGI (U251 CNS) [µM] | TGI (HOP-62 NSCLC) [µM] | TGI (SNB-75 CNS) [µM] | TGI (TK-10 renal) [µM] | TGI (IGROV1 ovarian) [µM] | TGI (MDA-MB-435) [µM] | TGI (K-562 leukemia) [µM]
COc1ccc(/C=C2\C(=O)N(C3OC(COC(C)=O)C(OC(C)=O)C(OC(C)=O)C3OC(C)=O)c3ccccc3N=C2N)cc1 (stereo not given) | 23.4 | > 100 | > 100 | > 100 | > 100 | > 100 | 21.4 | > 100 | > 100 | > 100 | 54.4 | 39.7 | 41.9 | > 100 | > 100 | 54 | 99.2 | > 100 | 35.7 | 38.1
O=c1c2nn3c(=O)n(-c4ccccc4)c(=O)c3nn2c(=O)n1-c1ccccc1 | > 100 | > 100 | > 100 | > 100 | > 100 | > 100 | > 100 | > 100 | > 100 | > 100 | > 100 | > 100 | > 100 | > 100 | > 100 | > 100 | > 100 | > 100 | > 100 | > 100
O=C(CCCN1CCC2(CC1)OC(=O)N(c1ccccc1)C2=O)c1ccccc1 | > 100 | > 100 | > 100 | > 100 | > 100 | > 100 | > 100 | > 100 | > 100 | > 100 | > 100 | > 100 | > 100 | > 100 | > 100 | > 100 | > 100 | > 100 | > 100 | > 100
O=C(C1OC1c1ccc(O)cc1)C12CC3CC(CC(C3)C1)C2 (stereo not given) | > 100 | > 100 | > 100 | > 100 | > 96.1 | > 69.7 | > 94.9 | 57.4 | > 100 | > 100 | > 100 | > 55.2 | > 43.4 | > 100 | > 100 | > 100 | > 100 | > 100 | > 55 | > 61.3
c1ccc([P+](Cc2ccc(C[P+](c3ccccc3)(c3ccccc3)c3ccccc3)cc2)(c2ccccc2)c2ccccc2)cc1 | 90.1 | > 100 | > 100 | > 100 | > 100 | > 100 | > 100 | 93.4 | > 100 | > 100 | > 100 | > 100 | > 100 | > 100 | > 100 | > 100 | > 100 | > 100 | > 100 | 29.8
